Earlier results as cited in patent publication US20090088578A1, “NUCLEAR MAGNETIC RESONANCE IMAGING OF SELECTIVE SMALL MOLECULE DRUGS AS CONTRAST AGENTS” (priority 2007, published 2009).

Biological target: T1, aldehyde dehydrogenase 1 (Homo sapiens, UniProt P00352)
T1 sequence (P00352 1-501): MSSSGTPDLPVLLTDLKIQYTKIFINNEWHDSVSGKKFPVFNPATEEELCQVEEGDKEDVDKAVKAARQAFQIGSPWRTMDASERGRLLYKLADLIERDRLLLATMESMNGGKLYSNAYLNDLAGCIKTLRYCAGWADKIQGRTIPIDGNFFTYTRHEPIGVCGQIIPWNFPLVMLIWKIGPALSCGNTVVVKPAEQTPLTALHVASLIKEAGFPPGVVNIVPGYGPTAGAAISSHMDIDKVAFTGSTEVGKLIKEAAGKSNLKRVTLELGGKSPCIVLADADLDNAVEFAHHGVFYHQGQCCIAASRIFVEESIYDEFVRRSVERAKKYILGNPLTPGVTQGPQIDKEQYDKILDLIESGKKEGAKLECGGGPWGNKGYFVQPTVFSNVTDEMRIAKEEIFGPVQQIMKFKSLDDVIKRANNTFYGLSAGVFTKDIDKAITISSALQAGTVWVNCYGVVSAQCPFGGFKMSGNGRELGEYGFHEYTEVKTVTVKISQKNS
Settings: one of its two known protein targets

affinity for aldehyde dehydrogenase 1: low affinity
SMILES: CCN(CC)CCCC(C)Nc1ccnc2cc(Cl)ccc12 (stereo not shown) [Chloroquine, chloroquine]
